ChEMBL document CHEMBL6153137, “Design, Synthesis, and Biological Evaluation of Novel Orally Available Covalent CDK12/13 Dual Inhibitors for the Treatment of Tumors” (J Med Chem, 2025)
Activity calls are given as the source filed them. The calls are words filed in the database; no cut-off is given here.

Key:
[1] = test system: SW1417; experiment: Antiproliferative activity against human SW1417 cells assessed as reduction in cell viability incubated for 7 days by CellTiter-Glo reagent based luminescence analysis; type: functional; settings: SW1417, 168 h
[2] = AUC(0 to t) in male Sprague-Dawley rat at 40 mg/kg, po administered once daily via gavage for 28 days; type: ADME, organism-based; settings: in vivo, 672 h, time 28 day
[3] = Toxicity against male Sprague-Dawley rat assessed as effect on hematocrit level at 10 to 40 mg/kg, po administered once daily via gavage for 28 days and measured on day 29; type: organism-based; settings: in vivo, 696 h, dose 10-40 mg/kg, time 29 day
[4] = AUC(0 to t) in female Sprague-Dawley rat at 30 mg/kg, po administered once daily via gavage for 28 days; type: ADME, organism-based; settings: in vivo, 672 h, time 28 day
[5] = Toxicity against male Sprague-Dawley rat assessed as body weight loss at 40 mg/kg, po administered once daily via gavage for 28 days and measured twice a week; type: organism-based; settings: in vivo, 672 h, time 28 day
[6] = biological target: CDK9/cyclin T1 (Homo sapiens) (UniProt O60563+P50750); experiment: Inhibition of human recombinant N-terminal GST-tagged CDK9/N-terminal GST-tagged and C-terminal 8X His-tagged Cyclin T1 expressed in HEP Sf9 cells using ATP as substrate at 2 uM measured after 60 mins by ADP-Glo reagent based luminescence assay
[7] = Half life in female Sprague-Dawley rat at 7.5 mg/kg, po administered via gavage and measured on day 1; type: ADME, organism-based; settings: in vivo, time 1 day
[8] = biological target: Cyclin-dependent kinase 12/13 (Homo sapiens) (UniProt Q14004+Q9NYV4); experiment: Covalent inhibition of CDK12/13 in human SUM149PT cells assessed as reduction in level of phosphorylation of Ser2 on RNA Pol II CTD at 500 nM incubated for 12 hrs followed by drug wash-out and measured after 72 hrs by western blot analysis; type: cell-based
[9] = Toxicity against female Sprague-Dawley rat assessed as effect on red blood cells level at 7.5 to 30 mg/kg, po administered once daily via gavage for 28 days and measured on day 29; type: organism-based; settings: in vivo, 696 h, dose 7.5-30 mg/kg, time 29 day
[10] = biological target: Cyclin-dependent kinase 5/CDK5 activator 1 (Homo sapiens) (UniProt Q00535+Q15078); experiment: Inhibition of human recombinant N-terminal GST-tagged CDK5/N-terminal GST-tagged p35NCK expressed in HEP Sf9 cells using ATP as substrate at 2 uM measured after 60 mins by ADP-Glo reagent based luminescence analysis
Sequence of Cyclin-dependent kinase 5/CDK5 activator 1 (Homo sapiens) (Q00535 whole entry): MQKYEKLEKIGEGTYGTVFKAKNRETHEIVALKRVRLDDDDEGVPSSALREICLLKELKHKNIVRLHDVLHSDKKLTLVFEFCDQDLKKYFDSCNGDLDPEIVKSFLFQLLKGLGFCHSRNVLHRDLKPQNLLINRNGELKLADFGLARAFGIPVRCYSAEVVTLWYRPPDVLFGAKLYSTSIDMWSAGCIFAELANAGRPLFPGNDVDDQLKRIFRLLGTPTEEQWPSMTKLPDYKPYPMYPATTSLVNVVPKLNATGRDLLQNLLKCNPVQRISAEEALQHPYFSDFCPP
Sequence of Cyclin-dependent kinase 5/CDK5 activator 1 (Homo sapiens) (Q15078 99-307 partner limits assumed): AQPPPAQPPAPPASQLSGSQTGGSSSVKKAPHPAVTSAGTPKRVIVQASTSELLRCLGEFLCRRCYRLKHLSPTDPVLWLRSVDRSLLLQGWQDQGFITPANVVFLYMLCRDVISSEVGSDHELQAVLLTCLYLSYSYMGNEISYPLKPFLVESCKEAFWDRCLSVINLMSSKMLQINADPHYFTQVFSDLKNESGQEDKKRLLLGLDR

[11] = Toxicity against female Sprague-Dawley rat assessed as decrease in thymus volume at 7.5 to 30 mg/kg, po administered once daily via gavage for 28 days and measured on day 29; type: organism-based; settings: in vivo, 696 h, dose 7.5-30 mg/kg, time 29 day
[12] = biological target: CDK2/Cyclin A2 (Homo sapiens) (UniProt P24941+P20248); experiment: Inhibition of human recombinat N-terminal GST-tagged CDK2/C-terminal 8X His-tagged Cyclin A2 expressed in HEP Sf9 cells using ATP as substrate at 2 uM measured after 60 mins by ADP-Glo reagent based luminescence analysis
[13] = Toxicity against male Sprague-Dawley rat assessed as decrease in lymphocytes content at 10 to 40 mg/kg, po administered once daily via gavage for 28 days and measured on day 29; type: organism-based; settings: in vivo, 696 h, dose 10-40 mg/kg, time 29 day
[14] = biological target: Cytochrome P450 3A4 (Homo sapiens, UniProt P08684); experiment: Inhibition of CYP3A4 in human liver microsomes assessed as inhibition of midazolam-1'-hydroxylation incubated for 10 mins in presence of NADPH by LC-MS/MS analysis; type: ADME, Microsome
Sequence of Cytochrome P450 3A4 (P08684 whole entry): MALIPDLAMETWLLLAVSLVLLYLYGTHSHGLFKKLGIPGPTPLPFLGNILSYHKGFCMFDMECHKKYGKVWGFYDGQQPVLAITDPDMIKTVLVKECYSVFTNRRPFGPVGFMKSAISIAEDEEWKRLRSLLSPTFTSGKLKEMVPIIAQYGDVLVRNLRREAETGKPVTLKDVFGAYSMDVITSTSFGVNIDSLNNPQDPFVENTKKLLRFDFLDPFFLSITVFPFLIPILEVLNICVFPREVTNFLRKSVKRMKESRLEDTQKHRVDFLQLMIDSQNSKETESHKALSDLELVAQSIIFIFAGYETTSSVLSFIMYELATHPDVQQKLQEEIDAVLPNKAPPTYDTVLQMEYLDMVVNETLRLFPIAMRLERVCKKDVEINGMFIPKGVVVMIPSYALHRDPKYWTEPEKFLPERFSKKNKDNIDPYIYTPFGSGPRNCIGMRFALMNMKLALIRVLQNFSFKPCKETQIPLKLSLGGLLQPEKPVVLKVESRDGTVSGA

[15] = test system: MDA-MB-231; experiment: Antiproliferative activity against human MDA-MB-231 cells assessed as reduction in cell viability incubated for 7 days by CellTiter-Glo reagent based luminescence analysis; type: functional; settings: MDA-MB-231, 168 h
[16] = Cmax in female Sprague-Dawley rat at 15 mg/kg, po administered once daily via gavage for 28 days; type: ADME, organism-based; settings: in vivo, time 28 day
[17] = biological target: CDK1/Cyclin A (Homo sapiens) (UniProt P06493+P20248); experiment: Inhibition of human recombinant N-terminal GST-tagged CDK1/N-terminal GST-tagged and C-terminal 8X His-tagged Cyclin A2 expressed in HEP Sf9 cells using ATP as substrate at 2 uM measured after 60 mins by ADP-Glo reagent based luminescence analysis
Sequence of CDK1/Cyclin A (Homo sapiens) (P06493 whole entry, looked up): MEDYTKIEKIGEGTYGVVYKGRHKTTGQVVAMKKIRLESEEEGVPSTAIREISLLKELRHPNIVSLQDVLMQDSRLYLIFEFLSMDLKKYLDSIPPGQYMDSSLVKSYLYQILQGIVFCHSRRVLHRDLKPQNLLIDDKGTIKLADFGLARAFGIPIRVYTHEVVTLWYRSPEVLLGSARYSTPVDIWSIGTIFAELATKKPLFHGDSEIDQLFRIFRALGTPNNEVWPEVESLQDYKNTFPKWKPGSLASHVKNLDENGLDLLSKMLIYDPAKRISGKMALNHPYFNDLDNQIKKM
Sequence of CDK1/Cyclin A (Homo sapiens) (P20248 whole entry, looked up): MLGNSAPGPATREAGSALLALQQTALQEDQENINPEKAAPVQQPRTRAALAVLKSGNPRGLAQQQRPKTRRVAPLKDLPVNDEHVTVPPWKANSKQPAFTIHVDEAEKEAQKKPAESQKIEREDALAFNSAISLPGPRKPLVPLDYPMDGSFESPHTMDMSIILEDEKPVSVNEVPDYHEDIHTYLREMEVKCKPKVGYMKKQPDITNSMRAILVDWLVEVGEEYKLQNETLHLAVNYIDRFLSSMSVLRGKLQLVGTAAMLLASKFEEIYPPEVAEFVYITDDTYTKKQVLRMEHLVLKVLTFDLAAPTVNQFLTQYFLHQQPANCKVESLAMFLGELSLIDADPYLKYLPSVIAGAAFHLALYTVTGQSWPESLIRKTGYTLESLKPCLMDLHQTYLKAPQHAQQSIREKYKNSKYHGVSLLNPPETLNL

[18] = Half life in male Sprague-Dawley rat at 10 mg/kg, po administered once daily via gavage for 28 days; type: ADME, organism-based; settings: in vivo, time 28 day
[19] = Toxicity against male Sprague-Dawley rat assessed as decrease in thymus weight at 10 to 40 mg/kg, po administered once daily via gavage for 28 days and measured on day 29; type: organism-based; settings: in vivo, 696 h, dose 10-40 mg/kg, time 29 day
[20] = biological target: Cytochrome P450 2D6 (Homo sapiens, UniProt P10635); experiment: Inhibition of CYP2D6 in human liver microsomes assessed as inhibition of dextromethorphan-O-demethylation incubated for 10 mins in presence of NADPH by LC-MS/MS analysis; type: ADME, Microsome
Sequence of Cytochrome P450 2D6 (P10635 whole entry): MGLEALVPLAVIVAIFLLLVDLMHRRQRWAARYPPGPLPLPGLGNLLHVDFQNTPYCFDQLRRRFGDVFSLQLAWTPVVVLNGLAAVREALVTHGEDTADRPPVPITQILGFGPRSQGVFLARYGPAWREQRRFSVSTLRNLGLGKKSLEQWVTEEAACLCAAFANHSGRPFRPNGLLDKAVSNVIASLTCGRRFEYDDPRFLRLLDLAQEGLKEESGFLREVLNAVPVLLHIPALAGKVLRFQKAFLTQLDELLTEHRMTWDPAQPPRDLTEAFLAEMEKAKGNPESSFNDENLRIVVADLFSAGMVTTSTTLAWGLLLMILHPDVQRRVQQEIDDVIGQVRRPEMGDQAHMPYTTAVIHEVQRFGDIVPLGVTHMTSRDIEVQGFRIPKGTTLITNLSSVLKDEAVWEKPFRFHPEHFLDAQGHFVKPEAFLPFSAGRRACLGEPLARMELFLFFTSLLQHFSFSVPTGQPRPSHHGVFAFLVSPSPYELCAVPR

[21] = Toxicity against female Sprague-Dawley rat assessed as effect on chlorine level in blood at 7.5 to 30 mg/kg, po administered once daily via gavage for 28 days and measured on day 29; type: organism-based; settings: in vivo, 696 h, dose 7.5-30 mg/kg, time 29 day
[22] = Half-life of the compound in human Plasma; type: ADME, cell-free
[23] = Cmax in male Sprague-Dawley rat at 40 mg/kg, po administered once daily via gavage for 28 days; type: ADME, organism-based; settings: in vivo, time 28 day
[24] = biological target: CDK1/Cyclin E (Homo sapiens) (UniProt P06493+P24864); experiment: Inhibition of human recombinant N-terminal GST-tagged CDK1/Cyclin E1 expressed in HEP Sf9 cells using ATP as substrate at 2 uM measured after 60 mins by ADP-Glo reagent based luminescence analysis
Sequence of CDK1/Cyclin E (Homo sapiens) (P06493 whole entry, looked up): as the sequence (P06493 whole entry, looked up) above
Sequence of CDK1/Cyclin E (Homo sapiens) (P24864 whole entry, looked up): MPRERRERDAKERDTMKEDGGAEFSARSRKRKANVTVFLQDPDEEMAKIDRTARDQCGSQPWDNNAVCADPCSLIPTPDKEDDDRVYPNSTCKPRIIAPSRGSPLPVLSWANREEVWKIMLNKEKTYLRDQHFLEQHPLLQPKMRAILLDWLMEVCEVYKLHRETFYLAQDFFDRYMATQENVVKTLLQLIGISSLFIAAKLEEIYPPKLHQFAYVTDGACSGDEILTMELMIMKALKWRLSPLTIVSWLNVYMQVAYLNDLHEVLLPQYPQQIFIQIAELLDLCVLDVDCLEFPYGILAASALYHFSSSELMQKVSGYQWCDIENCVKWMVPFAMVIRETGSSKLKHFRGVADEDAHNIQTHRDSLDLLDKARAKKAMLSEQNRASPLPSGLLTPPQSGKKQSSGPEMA

[25] = biological target: Cyclin-dependent kinase 9 (Homo sapiens) (UniProt P50750); experiment: Inhibition of CDK9 in human SUM149PT cells assessed as reduction in level of phosphorylation of Ser7 on RNA Pol II CTD at 500 nM incubated for 12 hrs followed by drug wash-out and measured after 72 hrs by western blot analysis; type: cell-based
Sequence of Cyclin-dependent kinase 9 (Homo sapiens) (P50750 whole entry): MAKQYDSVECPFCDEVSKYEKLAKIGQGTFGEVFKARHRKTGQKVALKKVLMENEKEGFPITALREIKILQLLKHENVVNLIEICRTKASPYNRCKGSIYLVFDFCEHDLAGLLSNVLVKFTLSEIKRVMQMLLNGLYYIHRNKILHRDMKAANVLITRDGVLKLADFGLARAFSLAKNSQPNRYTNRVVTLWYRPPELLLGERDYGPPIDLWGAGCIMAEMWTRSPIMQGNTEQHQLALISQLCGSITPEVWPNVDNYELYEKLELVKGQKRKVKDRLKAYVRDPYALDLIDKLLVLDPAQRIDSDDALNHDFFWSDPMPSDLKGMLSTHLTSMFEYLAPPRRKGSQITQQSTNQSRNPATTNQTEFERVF

[26] = AUC in Balb/c mouse xenografted with human MV4-11 cells at 15 mg/kg, po administered once daily via gavage; type: ADME, organism-based; settings: in vivo
[27] = Half life in Sprague-Dawley rat at 150 mg/kg, po measured for 24 hrs by LC-MS/MS analysis; type: ADME, organism-based; settings: in vivo
[28] = AUC(0 to t) in male Sprague-Dawley rat at 10 mg/kg, po administered once daily via gavage for 28 days; type: ADME, organism-based; settings: in vivo, 672 h, time 28 day
[29] = biological target: CDK3/Cyclin E (Homo sapiens) (UniProt P24864+Q00526); experiment: Inhibition of human recombinant N-terminal GST-tagged CDK3/N-terminal 6X His-tagged Cyclin E1 expressed in HEP Sf9 cells using ATP as substrate at 2 uM measured after 60 mins by ADP-Glo reagent based luminescence analysis
Sequence of CDK3/Cyclin E (Homo sapiens) (P24864 whole entry, looked up): as the sequence (P24864 whole entry, looked up) above
Sequence of CDK3/Cyclin E (Homo sapiens) (Q00526 whole entry, looked up): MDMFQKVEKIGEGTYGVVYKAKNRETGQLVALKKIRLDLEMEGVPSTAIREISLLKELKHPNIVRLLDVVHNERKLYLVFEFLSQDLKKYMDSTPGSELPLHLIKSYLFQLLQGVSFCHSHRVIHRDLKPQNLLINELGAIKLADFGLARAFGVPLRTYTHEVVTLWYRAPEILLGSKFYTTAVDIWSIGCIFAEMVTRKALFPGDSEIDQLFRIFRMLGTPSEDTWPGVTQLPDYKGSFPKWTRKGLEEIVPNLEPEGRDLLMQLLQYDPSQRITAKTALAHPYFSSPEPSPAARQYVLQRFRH

[30] = AUC(0 to t) in female Sprague-Dawley rat at 30 mg/kg, po administered via gavage and measured on day 1; type: ADME, organism-based; settings: in vivo, 24 h, time 1 day
[31] = test system: HCT-116; experiment: Antiproliferative activity against human HCT-116 cells assessed as reduction in cell viability incubated for 7 days by CellTiter-Glo reagent based luminescence analysis; type: functional; settings: HCT-116, 168 h
[32] = Cmax in Balb/c mouse xenografted with human MV4-11 cells at 15 mg/kg, po administered once daily via gavage; type: ADME, organism-based; settings: in vivo

IC50 [1]: 137 nM
AUCt [2]: 6070 ng·h/mL
AUCt [4]: 7860 ng·h/mL
inhibition [6]: 75%
half-life [7]: 2 h
inhibition [8]: Active
inhibition [10]: 62%
inhibition [12]: 1%
IC50 [14]: > 50000 nM
IC50 [15]: 58 nM
Cmax [16]: 1800 ng/mL
inhibition [17]: 10%
half-life [18]: 3.5 h
IC50 [20]: > 50000 nM
half-life [22]: > 4.82 h
Cmax [23]: 2410 ng/mL
inhibition [24]: 24%
inhibition [25]: inactive
AUC [26]: 2140 ng·h/mL
half-life [27]: 21.2 h
AUCt [28]: 1330 ng·h/mL
inhibition [29]: 46%
AUCt [30]: 9090 ng·h/mL
IC50 [31]: 128 nM
Cmax [32]: 647 ng/mL
SMILES: C=CC(=O)N1CCc2c(ncnc2N2CC[C@@H](Nc3ncc(Cl)c(OC)n3)C2)C1
Activity [3]: Non-toxic
Activity [5]: Toxic
Activity [9]: Non-toxic
Activity [11]: Toxic
Activity [13]: Toxic
Activity [19]: Toxic
Activity [21]: Non-toxic
